# Test results: patent US5374541A, “Combined use of β-galactosidase and sialyltransferase coupled with in situ regeneration of CMP-sialic acid for one pot synthesis of oligosaccharides” (priority 1993, dated 1994)
# Entries after “also recorded” stand apart in the source; their conditions may differ. Like-named read-outs stand apart in the source and are kept apart here.
# Assays:
# [1] = biological target: T1, α(2,3)sialyltransferase (EC 2.4.99.4) (Sus scrofa, UniProt Q02745); conditions: Table 1; cited from earlier work
# T1 sequence (Q02745 1-343): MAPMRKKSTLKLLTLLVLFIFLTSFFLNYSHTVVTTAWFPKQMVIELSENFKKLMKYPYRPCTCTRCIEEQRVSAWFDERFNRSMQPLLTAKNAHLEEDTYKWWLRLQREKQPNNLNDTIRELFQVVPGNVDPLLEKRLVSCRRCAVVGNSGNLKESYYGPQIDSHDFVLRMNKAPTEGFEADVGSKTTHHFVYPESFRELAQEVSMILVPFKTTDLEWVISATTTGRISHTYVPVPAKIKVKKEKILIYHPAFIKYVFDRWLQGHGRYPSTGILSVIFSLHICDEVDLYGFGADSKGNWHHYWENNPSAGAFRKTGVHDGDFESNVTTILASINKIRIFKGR
# [2] = biological target: T2, α(2,6)sialyltransferase, rat liver (Rattus norvegicus, UniProt P13721); conditions: cited from earlier work; for substrate quality / sialylated product formation: Table 1 footnotes 4 and 5, rat liver α(2,6)sialyltransferase, Weinstein et al.
# T2 sequence (P13721 1-403): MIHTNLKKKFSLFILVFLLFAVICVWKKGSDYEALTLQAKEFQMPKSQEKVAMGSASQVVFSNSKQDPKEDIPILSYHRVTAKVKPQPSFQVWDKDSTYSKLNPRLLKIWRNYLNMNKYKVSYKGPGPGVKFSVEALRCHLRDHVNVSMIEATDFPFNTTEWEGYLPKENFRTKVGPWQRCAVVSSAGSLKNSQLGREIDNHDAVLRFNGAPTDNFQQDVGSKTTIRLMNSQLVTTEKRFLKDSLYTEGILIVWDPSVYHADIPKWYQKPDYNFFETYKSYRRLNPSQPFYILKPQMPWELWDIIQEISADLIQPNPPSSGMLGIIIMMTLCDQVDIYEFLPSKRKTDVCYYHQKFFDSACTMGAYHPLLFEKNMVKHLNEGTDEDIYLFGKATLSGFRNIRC
# [3] = biological target: T3, α(2,6)sialyltransferase (EC 2.4.99.1) (Bos taurus, UniProt O18974); conditions: cited from earlier work
# T3 construct: literature kinetics (Beyer, Paulson) and synthesis tests
# T3 sequence (O18974 1-405): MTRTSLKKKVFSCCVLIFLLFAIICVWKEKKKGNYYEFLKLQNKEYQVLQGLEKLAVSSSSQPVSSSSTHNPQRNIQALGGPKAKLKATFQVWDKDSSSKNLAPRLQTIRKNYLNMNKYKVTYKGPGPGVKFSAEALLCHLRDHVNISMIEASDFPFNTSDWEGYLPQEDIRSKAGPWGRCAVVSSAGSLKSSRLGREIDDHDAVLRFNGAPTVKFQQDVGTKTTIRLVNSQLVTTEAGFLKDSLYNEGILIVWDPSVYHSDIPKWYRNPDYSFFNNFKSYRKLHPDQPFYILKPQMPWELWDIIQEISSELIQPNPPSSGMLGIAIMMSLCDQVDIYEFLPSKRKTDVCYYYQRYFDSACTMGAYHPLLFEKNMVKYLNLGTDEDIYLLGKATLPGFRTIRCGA
# [4] = biological target: T4, α(2,3)sialyltransferase (EC 2.4.99.6) (Rattus norvegicus, UniProt Q02734); conditions: Table 1; cited from earlier work
# T4 sequence (Q02734 1-374): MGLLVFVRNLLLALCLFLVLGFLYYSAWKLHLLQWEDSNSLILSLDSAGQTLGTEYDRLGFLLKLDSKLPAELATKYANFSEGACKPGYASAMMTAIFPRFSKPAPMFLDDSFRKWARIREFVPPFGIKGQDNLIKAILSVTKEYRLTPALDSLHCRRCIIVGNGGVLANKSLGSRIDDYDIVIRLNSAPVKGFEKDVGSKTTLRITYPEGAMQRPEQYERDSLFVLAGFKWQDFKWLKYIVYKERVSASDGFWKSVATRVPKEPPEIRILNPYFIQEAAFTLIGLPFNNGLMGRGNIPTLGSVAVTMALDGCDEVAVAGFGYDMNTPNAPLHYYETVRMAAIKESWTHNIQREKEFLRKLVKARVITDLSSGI
# [5] = biological target: T3, α(2,6)sialyltransferase (EC 2.4.99.1); experiment: Sialylation of prepared galactosyl glycosides by the sialyltransferase; assay type: biochemical, bovine; conditions: one pot reaction, result in words
# Experimental: A representative synthesis of Neu5Acα(2,6)-LacNAc (Compound 1) is discussed below. To a 1.07 mL HEPES buffer (0.2M, 20 mM MgCl2, 5.3 mM MnCl2, 20 mM KCl, pH 7.5) containing 12.3 mg Neu5Ac (20 mM; provided by Dr. U. Kragl, Research Center, Julich, Germany), 180 mg Lac (250 mM), 265 mg GlcNAc (600 mM), 30.2 mg PEP (trisodium salt, 40 mM), CMP (2 mM) and ATP (0.2 mM) were added myokinase (MK, EC 2.7.4.3; 6 U), pyruvate kinase (PK, EC 2.7.1.40; 80 U), inorganic pyrophosphatase (PPase, EC 3.6.1.1; 4 U), CMP-Neu5Ac synthetase (EC 2.7.43; 0.32 U), α(2,6)sialyltransferase (EC 2.4.99.1; 0,052 U) and 1 mg of crude β-galactosidase (EC 3.2.1.23) from Bacillus Circulans (provided by Daiwa Kasei KK, Osaka, Japan). The total volume was adjusted to 2 mL.
# In a similar manner, the sialylated saccharide (Compound 2) was also prepared. […] Compound 10 was prepared as follows.
# [6] = aqueous buffers as are used here; cited from earlier work
# [7] = tested on: B. circulans β-galactosidase (EC 3.2.1.23); experiment: Relative rates of galactoside substrates with B. circulans β-galactosidase; assay type: biochemical, Bacillus circulans; conditions: Lac = 100
# Source text: That β-galactosidase accepts the following substrates with the indicated, parenthesized relative rates: Lac (100), o-nitrophenyl β-galactoside (10.6), methyl β-galactoside (1).
# [8] = biological target: T2, α(2,6)sialyltransferase, rat liver; experiment: Km and Vmax of acceptor molecules for rat liver α(2,6)sialyltransferase; assay type: biochemical; conditions: Table 1, footnoted values approximated from Weinstein et al.
# Source text: Km is the Michaelis constant in units of moles/liter. Vmax is the reaction velocity at a constant concentration of enzyme, and is in units of enzyme units/milligram, one enzyme unit being that amount of enzyme that will catalyze the transformation of one micromole of substrate per minute under optimal conditions. The value of Km /Vmax is the slope of the line obtained from a Lineweaver-Burk plot.
# Values for Km and Vmax for several galactosyl glycosides are available in the published literature and can be obtained using well known enzymatic techniques.
# [9] = Table 1, α(2,6)sialyltransferase, rat liver
# [10] = Table 1, α(2,6)sialyltransferase EC 2.4.99.1
# [11] = α(2,6)sialyltransferase, Paulson et al.
smiles,measurement,setting,value
CC(=O)N[C@H]1C(O)O[C@H](CO)[C@@H](O[C@@H]2O[C@H](CO)[C@H](O)[C@H](O)[C@H]2O)[C@@H]1O (stereo partly shown) [Galβ1→4GlcNAc],Km,[1],42 mM
same,Vmax,[1],0.11 units/mg
same,Vmax,[2]; [9],0.93 units/mg
same,Km,"[2]; Table 1, α(2,6)sialyltransferase, rat liver, from Weinstein et al.",1.62 mM
same,Vmax,[3]; [10],1 units/mg
same,Vmax,[3]; [11],1.00
same,Vmax,[4],0.75 units/mg
"[N-]=[N+]=N[C@H]1C(O)O[C@H](CO)[C@@H](O[C@@H]2O[C@H](CO)[C@H](O)[C@H](O)[C@H]2O)[C@@H]1O (stereo partly shown) [Compound 4, Galβ1→4(2-N3)Glc]",substrate for the sialyltransferase / sialylated in the reaction,[5],"very weak substrate; also recorded: sialylated, but poorly"
CC(=O)NC1C(O)CC(OP(=O)(O)OCC2OC(n3ccc(N)nc3=O)C(O)C2O)(C(=O)O)OC1C(O)C(O)CO (stereo not shown) [CMP-sialic acid],half-life,[6],only a few hours
"OC[C@H]1O[C@@H](O[C@H]2[C@H](O)[C@@H](O)C(O)S[C@@H]2CO)[C@H](O)[C@@H](O)[C@H]1O (stereo partly shown) [Compound 3, Galβ1→4(5-thio)Glc]",substrate for the sialyltransferase / sialylated in the reaction,[5],not a substrate; also recorded: not sialylated
CO[C@@H]1O[C@H](CO)[C@H](O)[C@H](O)[C@H]1O [methyl β-galactoside],relative rate as substrate,[7],1
"CC(=O)N[C@H]1[C@H](O[C@H]2[C@@H](O)[C@@H](CO)O[C@@H](O[C@H]3[C@H](O)[C@@H](O)C(O)O[C@@H]3CO)[C@@H]2O)O[C@H](CO)[C@@H](O)[C@@H]1O[C@@H]1O[C@H](CO)[C@H](O)[C@H](O)[C@H]1O (stereo partly shown) [lacto-N-tetraose, Galβ1→3GlcNAcβ1→3Galβ1→4Glc]",Vmax,[1],3.6 units/mg
same,Vmax,[4],1.00 units/mg
OC[C@H]1O[C@@H](O[C@H]2[C@H](O)[C@@H](O)C(O)O[C@@H]2CO)[C@H](O)[C@@H](O)[C@H]1O (stereo partly shown) [Galβ1→4Glc],Vmax,[1],0.62 units/mg
same,relative rate as substrate,[7],100
same,Vmax,[2]; [9],0.30 units/mg
same,Vmax,[3]; [10],1.02 units/mg
same,Vmax,[3]; [11],1.02
same,Km,[4],9.4 mM
same,Vmax,[4],0.91 units/mg
CC(=O)N[C@H]1C(O)O[C@H](CO)[C@@H](O)[C@@H]1O[C@@H]1O[C@H](CO)[C@H](O)[C@H](O)[C@H]1O (stereo partly shown) [Galβ1→3GlcNAc],Km,[1],65 mM
same,Vmax,[1],4.4 units/mg
same,substrate quality / sialylated product formation,[2],poor substrate
same,Vmax,[4],1.16 units/mg
CC(=O)N[C@H]1C(O)O[C@H](CO[C@@H]2O[C@H](CO)[C@H](O)[C@H](O)[C@H]2O)[C@@H](O)[C@@H]1O (stereo partly shown) [Galβ1→6GlcNAc],Km,[1],29 mM
same,Vmax,[1],0.24 units/mg
same,Vmax,[3]; [10],0.03 units/mg
same,Vmax,[3]; [11],0.03
same,Vmax,"[3]; α(2,6)sialyltransferase, low Vmax",3%
O=[N+]([O-])c1ccccc1O[C@@H]1O[C@H](CO)[C@H](O)[C@H](O)[C@H]1O [o-nitrophenyl β-galactoside],relative rate as substrate,[7],10.6
CC(=O)N[C@H]1C(O)O[C@H](CO)[C@H](O)[C@@H]1O[C@@H]1O[C@H](CO)[C@H](O)[C@H](O)[C@H]1O (stereo partly shown) [Galβ1→3GalNAc],Km,[1],0.21 mM
same,Vmax,[1],8.9 units/mg
same,substrate quality / sialylated product formation,[2],No sialylated product was reported to be formed
same,Km/Vmax,[8],very large
